Source: patent US11407796B2, “Antisecretory factor 17” (LANTMÄNNEN AS-FAKTOR AB, priority 2016, dated 2022)
Like-named read-outs stand apart in the source and are kept apart here. Ends that are not written are not given here. Peptide text beside a SMILES is read from it. * marks the point of attachment. Succinimide(1-Et,3-yl) = CCN1C(=O)CC(*)C1=O

Legend:
[1] = plasma
[2] = AF16 and AF16-NEM stability in human plasma; assay type: in vitro ADME; conditions: for half-life: 37° C.
Experimental: Test of AF16 and AF16-NEM stability in plasma was performed using pooled human plasma (4 donors, two female+two male) in HPLC glass vials at 37° C. (20 μM incubation conc.). Four different matrices were tested: Plasma: isotonic 67 mM potassium phosphate pH 7.4 (KP) (1:1), plasma:KP+0.1 mM DTT, KP and KP+0.1 mM DTT. Incubation times were 0, 1.5 and 3 h. At the indicated times a 50 μl aliquot was extracted and quenched/precipitated in 150 μl ice-cold methanol and frozen until analysis. Relative quantification was performed UPLC-MS/MS.
AF16, the stable isotope labeled (SIL) AF16 and the alkylated analog AF16-NEM were incubated at 1 μM in human plasma: 0.1M potassium phosphate pH 7.4 (KP) (1:1), human plasma: KP (1:1)+1 mM DTT, KP or KP+1 mM DTT over 3 h at 37° C. to investigate stability. KP was included to provide buffer capacity to the plasma and to not confuse the results with pH related effects.

[3] = AF16 metabolite identification in human plasma; assay type: in vitro ADME
Experimental: (§1) (10 μM incubation conc.).
(§2) The flow rate was 0.5 ml/min.
(§3) AF16 and the isotopically labelled peptide in similar quantity were incubated in plasma of rat and human as described above. For analysis of full scan MS data, the metabolite identification software from Sciex, Lightsight, was used, which compares the incubated MS response to the quality control (QC) sample and assigns apparent peaks as metabolites with specific mass over charge (m/z) values. The software is currently not optimal to use with multi-charged compounds such as peptides so the hit-rate of metabolite detection is fairly high and manual assessment of each found peak had to be performed. The largest metabolite peak areas were then rank ordered and in some cases verified by MS/MS fragmentation. Skyline methodology was used to predict fragmentation of the identified peptides, but also aided in creating sensitive MRM methods so that low amounts could be monitored.

[4] = AF16 stability and metabolite formation with Caco-2 cells; assay type: in vitro ADME; conditions: Caco-2, 50 μM, apical side of Caco-2 cells
Experimental: (§4) Investigation of the fate of AF16 in the presence of Caco-2 cells was performed on three separate occasions. Firstly, a quantitative measurement was performed using MRM methodology (table 1) over 0, 15, 30 and 60 min. Here, AF16 or its possible sulfonic acid metabolite was monitored both in the apical and in the basolateral compartment (not shown). The second experiment was a qualitative determination of the fate of AF16 during a 60 min incubation. 50 μM AF16 in HBSS buffer was incubated at the apical side of the Caco-2 cell monolayer and 100 μl aliquots was extracted at 5, 10, 20, 30 and 60 min. The sample was placed on a 96-well plate containing 100 μl MeCN/H2O. The plate was sealed and frozen until full-scan UPLC-MS analysis (see below and table 2). The third experiment was a mirror of the second and the only difference was that a HBSS solution of AF16:AF16 IS (1:1) was used, to aid in the structure elucidation.
(§5) All samples from the different assays were analyzed by UPLC-MS/MS. The following system was used, a Waters XEVO TQ triple-quadrupole mass spectrometer (electrospray ionization, ESI) coupled to a Waters Acquity UPLC (VVaters Corp.). For chromatographic separation a general gradient was used (1% mobile phase B to 50% over 3 min total run) on a C18 BEH 1.7 μm column 2×100 mm (VVaters Corp.). Mobile phase A consisted of 0.05% TFA and mobile phase B 100% acetonitrile. The flow rate was 0.5 ml/min. In the full-scan MS analysis the same chromatographic settings was used except that 10 μl was injected (full loop). The MS was set to scan for ions in the 100-400 or 400-700 m/z window using the cone voltage in table 1.
(§6) It is well known that in the intestine, and as such at the apical side of Caco-2 cells, brush-border peptidases exist. To further investigate this, a separate experiment was designed. Caco-2 cells were exposed at the apical side to 50 μM AF16, with or without a protease inhibitor cocktail, and were sampled over 1 h.

[5] = tested on: Caco-2 cells; test: as above; assay type: in vitro ADME
Experimental: as §4, §5, §6

[6] = AF16 metabolite identification in rat plasma; assay type: in vitro ADME
Experimental: as §1, §2, §3

[7] = Kinetics of AF16 and metabolites in plasma with ZnSO4 precipitant +/-DTT; assay type: in vitro ADME, human, rat; conditions: plasma precipitated with ZnSO4, +/−DTT
From the text: The kinetics shown in FIG. 13 was surprising given the fact that DTT was used in the quenching solution with TCA, although it is likely that the reducing capability of DTT is lowered in acidic conditions. It was therefore tested if the same pattern occurred when using a neutral precipitant ZnSO4 (without NaOH). This precipitation method is not as efficient but would hopefully give more information on the formation of the major disulfide products.

[8] = human plasma:KP (1:1) + DTT, read-out: in vitro half-life (t½) with DTT (converted)
[9] = human plasma:KP pH 7.4 (1:1), no DTT, read-out: in vitro half-life (t½) (converted)
[10] = 30 min incubation of AF16, (+) inhibitor cocktail
[11] = 30 min incubation of AF16, (−) inhibitor cocktail
[12] = 60 min incubation of AF16, (+) inhibitor cocktail
[13] = 60 min incubation of AF16, (−) inhibitor cocktail

| Molecule | half-life [1] [min] | half-life [2, 8] [min] | half-life [2, 9] [min] | % of QC area at 30 min incubation time [3] [%] | half-life ([4]; with protease inhibitor cocktail (Bestatin, Diprotin A, Captopril), read-out: t½ of degradation with inhibitor cocktail) [min] | half-life ([4]; without inhibitor cocktail, read-out: t½ of degradation) [min] | t½ of degradation with inhibitor cocktail ([5]; 50 μM, apical side of Caco-2 cells, with protease inhibitor cocktail (Bestatin, Diprotin A, Captopril)) [min] | Tentative amounts (%) of molecular species [5, 10] [%] | Tentative amounts (%) of molecular species [5, 11] [%] | Tentative amounts (%) of molecular species [5, 12] [%] | Tentative amounts (%) of molecular species [5, 13] [%] | % of QC area at 30 min incubation time [6] [%] | fold higher stability than AF16 ([2]; human plasma, no DTT) [fold] | resilience of the disulfide against DTT reduction [7] |
| --- | --- | --- | --- | --- | --- | --- | --- | --- | --- | --- | --- | --- | --- | --- |
| CC(C)C[C@H](NC(=O)CNC(=O)[C@@H](NC(=O)[C@H](CC(N)=O)NC(=O)[C@H](CC(N)=O)NC(=O)[C@H](CCC(=O)O)NC(=O)[C@@H]1CCCN1C(=O)[C@H](CC(N)=O)NC(=O)[C@H](CO)NC(=O)[C@H](CCCNC(=N)N)NC(=O)[C@@H](NC(=O)[C@H](CCCCN)NC(=O)[C@H](CO)NC(=O)[C@H](Cc1c[nH]cn1)NC(=O)[C@H](CS)NC(=O)[C@@H](N)C(C)C)[C@@H](C)O)C(C)C)C(=O)O [AF16, VCHSKTRSNPENNVGL] (H-VCHSKTRSNPENNVGL-OH; N-terminus and C-terminus assumed) | ≤ 10 | 66 | 24 | 1 | 57 | 8 | 55 | 79 | 6 | 63 | 1 | 4 |  |  |
| CCN1C(=O)CC(SC[C@H](NC(=O)[C@@H](N)C(C)C)C(=O)N[C@@H](Cc2c[nH]cn2)C(=O)N[C@@H](CO)C(=O)N[C@@H](CCCCN)C(=O)N[C@H](C(=O)N[C@@H](CCCNC(=N)N)C(=O)N[C@@H](CO)C(=O)N[C@@H](CC(N)=O)C(=O)N2CCC[C@H]2C(=O)N[C@@H](CCC(=O)O)C(=O)N[C@@H](CC(N)=O)C(=O)N[C@@H](CC(N)=O)C(=O)N[C@H](C(=O)NCC(=O)N[C@@H](CC(C)C)C(=O)O)C(C)C)[C@@H](C)O)C1=O (stereo partly shown) [AF16-NEM] (H-VC(Succinimide(1-Et,3-yl))HSKTRSNPENNVGL-OH; N-terminus and C-terminus assumed) |  | 252 | 108 |  |  |  |  |  |  |  |  |  | ~5 |  |
| CC(C)C[C@H](NC(=O)CNC(=O)[C@@H](NC(=O)[C@H](CC(N)=O)NC(=O)[C@H](CC(N)=O)NC(=O)[C@H](CCC(=O)O)NC(=O)[C@@H]1CCCN1C(=O)[C@H](CC(N)=O)NC(=O)[C@H](CO)NC(=O)[C@H](CCCNC(=N)N)NC(=O)[C@@H](NC(=O)[C@H](CCCCN)NC(=O)[C@H](CO)NC(=O)[C@@H](N)Cc1c[nH]cn1)[C@@H](C)O)C(C)C)C(=O)O [M3, HSK TRSNP ENNVG L] (H-HSKTRSNPENNVGL-OH; N-terminus and C-terminus assumed) |  |  |  | 0.9 |  |  |  | 2 | 38 | 4 | 24 | 0.4 |  |  |
| C[SCC]HSKTRSNPENNVGL (not fully specified (N-terminus); printed as C[SCC]HSKTRSNPENNVGL; also: [SCC] on the N-terminal Cys, meaning not given here) [M10] |  |  |  |  |  |  |  |  |  |  |  |  |  | resilient |
